Test system: P12-Ichikawa
Assay: cell viability relative to DMSO control; higher = less cytotoxic
Details: 48 h
Outline: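 Three leukemia lines were tested: NOMO1 and SEM at 500 cells/well and P12-Ichikawa at 1000 cells/well. Each was adapted for at least four passages in each medium and seeded in 5 μl in 1536-well plates, and library compounds in DMSO were pin-dosed from 47 μM to 0.79 nM in 11 threefold steps. After 48 h at 37°C, CellTiter-Glo One luminescence was read. Viability is a percentage relative to DMSO wells on each plate, with cell-free wells as background.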

[1] = HPLM + 10% dialyzed FBS, 0.000781 µM
[2] = HPLM + 10% dialyzed FBS, 0.00234 µM
[3] = HPLM + 10% dialyzed FBS, 0.00702 µM
[4] = HPLM + 10% dialyzed FBS, 0.0211 µM
[5] = HPLM + 10% dialyzed FBS, 0.0632 µM
[6] = HPLM + 10% dialyzed FBS, 0.19 µM
[7] = HPLM + 10% dialyzed FBS, 0.569 µM
[8] = HPLM + 10% dialyzed FBS, 1.71 µM
[9] = HPLM + 10% dialyzed FBS, 5.12 µM
[10] = HPLM + 10% dialyzed FBS, 15.4 µM
[11] = HPLM + 10% dialyzed FBS, 46.1 µM
[12] = RPMI 5 mM glucose + 10% FBS, 0.000781 µM
[13] = RPMI 5 mM glucose + 10% FBS, 0.00234 µM
[14] = RPMI 5 mM glucose + 10% FBS, 0.00702 µM
[15] = RPMI 5 mM glucose + 10% FBS, 0.0211 µM
[16] = RPMI 5 mM glucose + 10% FBS, 0.0632 µM
[17] = RPMI 5 mM glucose + 10% FBS, 0.19 µM
[18] = RPMI 5 mM glucose + 10% FBS, 0.569 µM
[19] = RPMI 5 mM glucose + 10% FBS, 1.71 µM
[20] = RPMI 5 mM glucose + 10% FBS, 5.12 µM
[21] = RPMI 5 mM glucose + 10% FBS, 15.4 µM
[22] = RPMI 5 mM glucose + 10% FBS, 46.1 µM
[23] = RPMI 5 mM glucose + 10% dialyzed FBS, 0.000781 µM
[24] = RPMI 5 mM glucose + 10% dialyzed FBS, 0.00234 µM
[25] = RPMI 5 mM glucose + 10% dialyzed FBS, 0.00702 µM
[26] = RPMI 5 mM glucose + 10% dialyzed FBS, 0.0211 µM
[27] = RPMI 5 mM glucose + 10% dialyzed FBS, 0.0632 µM
[28] = RPMI 5 mM glucose + 10% dialyzed FBS, 0.19 µM
[29] = RPMI 5 mM glucose + 10% dialyzed FBS, 0.569 µM
[30] = RPMI 5 mM glucose + 10% dialyzed FBS, 1.71 µM
[31] = RPMI 5 mM glucose + 10% dialyzed FBS, 5.12 µM
[32] = RPMI 5 mM glucose + 10% dialyzed FBS, 15.4 µM
[33] = RPMI 5 mM glucose + 10% dialyzed FBS, 46.1 µM

`CC/1=C/N([C@@H]2C[C@@H](O)[C@H](CO)O2)C(=O)NC1=O` gave a cell viability [1] of 93.7%, a cell viability [2] of 89.4% and a cell viability [3] of 96.2%. It also gave a cell viability [4] of 85.5%, a cell viability [5] of 78.7% and a cell viability [6] of 83.4%. The cell viability [7] was 91.7%, the cell viability [8] was 86.1% and the cell viability [9] was 73.7%. It also gave a cell viability [10] of 74.2%, a cell viability [11] of 8.14% and a cell viability [12] of 75.2%. For the same compound, the cell viability [13] was 86.7%, the cell viability [14] was 83.5% and the cell viability [15] was 85.8%. The cell viability [16] was 65.9%, the cell viability [17] was 80.7% and the cell viability [18] was 90.2%. It also gave a cell viability [19] of 76%, a cell viability [20] of 62.3% and a cell viability [21] of 69.5%. For the same compound, the cell viability [22] was 6.95%, the cell viability [23] was 76.3% and the cell viability [24] was 84.6%. The cell viability [25] was 79.8%, the cell viability [26] was 75.9% and the cell viability [27] was 61.6%. For the same compound, the cell viability [28] was 73.3%, the cell viability [29] was 81.8% and the cell viability [30] was 81%. It also gave a cell viability [31] of 61%, a cell viability [32] of 64.3% and a cell viability [33] of 12.2%.
Work on `C[N]1C=NC=C1[C@@](N)(C2=CC=C(Cl)C=C2)C3=CC=C4N(C)C(=O)\C=C(\C5=CC=CC(=C5)Cl)C4=C3` yielded a cell viability [1] of 111%, a cell viability [2] of 110% and a cell viability [3] of 113%. The cell viability [4] was 106%, the cell viability [5] was 109% and the cell viability [6] was 97.4%. For the same compound, the cell viability [7] was 82.4%, the cell viability [8] was 79.2% and the cell viability [9] was 73%. For the same compound, the cell viability [10] was 50.1%, the cell viability [11] was 27.9% and the cell viability [12] was 110%. It also gave a cell viability [13] of 113%, a cell viability [14] of 113% and a cell viability [15] of 106%. The cell viability [16] was 100%, the cell viability [17] was 81.2% and the cell viability [18] was 82.9%. It also gave a cell viability [19] of 69%, a cell viability [20] of 67.7% and a cell viability [21] of 42.1%. It also gave a cell viability [22] of 32.3%, a cell viability [23] of 105% and a cell viability [24] of 114%. For the same compound, the cell viability [25] was 115%, the cell viability [26] was 100% and the cell viability [27] was 107%. For the same compound, the cell viability [28] was 92.2%, the cell viability [29] was 85.5% and the cell viability [30] was 72.8%. The cell viability [31] was 69.6%, the cell viability [32] was 59.9% and the cell viability [33] was 39.3%.
For `CC1(C)[C@@H](O[C@H]2O[C@H](C(=O)O)[C@@H](O)[C@H](O)[C@H]2O[C@@H]2O[C@H](C(=O)O)[C@@H](O)[C@H](O)[C@H]2O)CC[C@]2(C)[C@H]3C(=O)C=C4[C@@H]5C[C@@](C)(C(=O)O)CC[C@]5(C)CC[C@@]4(C)[C@]3(C)CC[C@@H]12`, the cell viability [1] was 112%, the cell viability [2] was 130% and the cell viability [3] was 118%. For the same compound, the cell viability [4] was 132%, the cell viability [5] was 128% and the cell viability [6] was 131%. The cell viability [7] was 136%, the cell viability [8] was 128% and the cell viability [9] was 123%. For the same compound, the cell viability [10] was 128% and the cell viability [11] was 135%.
`COC(=O)N1CCN(Cc2cccc(NC(=O)Nc3ccc(C)nc3)c2F)CC1` showed a cell viability [1] of 94.8%, a cell viability [2] of 102% and a cell viability [3] of 103%. It also gave a cell viability [4] of 98.7%, a cell viability [5] of 102% and a cell viability [6] of 94.9%. The cell viability [7] was 97.7%, the cell viability [8] was 94.1% and the cell viability [9] was 91%. For the same compound, the cell viability [10] was 88.7%, the cell viability [11] was 84.8% and the cell viability [12] was 96.6%. It also gave a cell viability [13] of 98.7%, a cell viability [14] of 95.8% and a cell viability [15] of 104%. It also gave a cell viability [16] of 98.7%, a cell viability [17] of 95.2% and a cell viability [18] of 82.2%. The cell viability [19] was 81.4%, the cell viability [20] was 85.9% and the cell viability [21] was 87.6%. It also gave a cell viability [22] of 74.4%, a cell viability [23] of 92.8% and a cell viability [24] of 96%. The cell viability [25] was 87.1%, the cell viability [26] was 93.7% and the cell viability [27] was 89.7%. The cell viability [28] was 84.5%, the cell viability [29] was 84.5% and the cell viability [30] was 78.2%. It also gave a cell viability [31] of 81.2%, a cell viability [32] of 81.3% and a cell viability [33] of 69%.
`Cc1ccc(C(C)(O)c2nc3ccccc3s2)c(C)c1` (configuration not stated) was tested, and the cell viability [1] was 97.8%, the cell viability [2] was 110% and the cell viability [3] was 103%. The cell viability [4] was 108%, the cell viability [5] was 106% and the cell viability [6] was 114%. It also gave a cell viability [7] of 82%, a cell viability [8] of 109% and a cell viability [9] of 79.4%. It also gave a cell viability [10] of 37.5%, a cell viability [11] of 10.2% and a cell viability [12] of 91.2%. The cell viability [13] was 105%, the cell viability [14] was 107% and the cell viability [15] was 111%. The cell viability [16] was 100%, the cell viability [17] was 107% and the cell viability [18] was 91%. For the same compound, the cell viability [19] was 113%, the cell viability [20] was 70.8% and the cell viability [21] was 51.2%. It also gave a cell viability [22] of 8.46%, a cell viability [23] of 95.5% and a cell viability [24] of 103%. For the same compound, the cell viability [25] was 102%, the cell viability [26] was 111% and the cell viability [27] was 111%. The cell viability [28] was 98%, the cell viability [29] was 101% and the cell viability [30] was 108%. The cell viability [31] was 79%, the cell viability [32] was 63.9% and the cell viability [33] was 13.2%.
With `O=C(NC1CCOCC1)c1ccc(-c2cc(-c3c[nH]nc3-c3ccccn3)ccn2)cc1` the cell viability [1] was 104%, the cell viability [2] was 103% and the cell viability [3] was 110%. For the same compound, the cell viability [4] was 104%, the cell viability [5] was 111% and the cell viability [6] was 108%. For the same compound, the cell viability [7] was 109%, the cell viability [8] was 96.6% and the cell viability [9] was 98.3%. For the same compound, the cell viability [10] was 92.4%, the cell viability [11] was 104% and the cell viability [12] was 104%. It also gave a cell viability [13] of 109%, a cell viability [14] of 110% and a cell viability [15] of 109%. It also gave a cell viability [16] of 109%, a cell viability [17] of 94.1% and a cell viability [18] of 98.4%. For the same compound, the cell viability [19] was 85.7%, the cell viability [20] was 99.9% and the cell viability [21] was 97.8%. For the same compound, the cell viability [22] was 99.9%, the cell viability [23] was 114% and the cell viability [24] was 109%. It also gave a cell viability [25] of 103%, a cell viability [26] of 105% and a cell viability [27] of 103%. For the same compound, the cell viability [28] was 102%, the cell viability [29] was 96% and the cell viability [30] was 105%. The cell viability [31] was 88.4%, the cell viability [32] was 97.5% and the cell viability [33] was 89.8%.
`Nc1ccccc1NC(=O)c1ccc(CNc2nccc(-c3cccnc3)n2)cc1` gave a cell viability [1] of 106%, a cell viability [2] of 107% and a cell viability [3] of 108%. It also gave a cell viability [4] of 113%, a cell viability [5] of 110% and a cell viability [6] of 120%. For the same compound, the cell viability [7] was 113%, the cell viability [8] was 85.6% and the cell viability [9] was 7.68%. It also gave a cell viability [10] of 6.63%, a cell viability [11] of 7% and a cell viability [12] of 101%. It also gave a cell viability [13] of 106%, a cell viability [14] of 109% and a cell viability [15] of 110%. It also gave a cell viability [16] of 111%, a cell viability [17] of 110% and a cell viability [18] of 114%. It also gave a cell viability [19] of 71.1%, a cell viability [20] of 9.5% and a cell viability [21] of 6.39%. For the same compound, the cell viability [22] was 6.22%, the cell viability [23] was 109% and the cell viability [24] was 107%. For the same compound, the cell viability [25] was 113%, the cell viability [26] was 122% and the cell viability [27] was 122%. The cell viability [28] was 117%, the cell viability [29] was 110% and the cell viability [30] was 83%. For the same compound, the cell viability [31] was 8.72%, the cell viability [32] was 7.24% and the cell viability [33] was 6.17%.
For `Cc1ccc(NC(=O)C2(c3ccc4c(c3)OC(F)(F)O4)CC2)nc1-c1cccc(C(=O)O)c1`, the cell viability [1] was 101%, the cell viability [2] was 111% and the cell viability [3] was 101%. For the same compound, the cell viability [4] was 108%, the cell viability [5] was 93.4% and the cell viability [6] was 58.4%. It also gave a cell viability [7] of 29.4%, a cell viability [8] of 19.5% and a cell viability [9] of 17.2%. The cell viability [10] was 10.9%, the cell viability [11] was 6.66% and the cell viability [12] was 106%. The cell viability [13] was 98.6%, the cell viability [14] was 95.5% and the cell viability [15] was 101%. For the same compound, the cell viability [16] was 85.3%, the cell viability [17] was 42.2% and the cell viability [18] was 18.7%. The cell viability [19] was 16.1%, the cell viability [20] was 11.1% and the cell viability [21] was 9.88%. It also gave a cell viability [22] of 6.85%, a cell viability [23] of 102% and a cell viability [24] of 103%. The cell viability [25] was 97%, the cell viability [26] was 96.1% and the cell viability [27] was 95.4%. For the same compound, the cell viability [28] was 44.5%, the cell viability [29] was 30.4% and the cell viability [30] was 20.8%. It also gave a cell viability [31] of 9.02%, a cell viability [32] of 8.13% and a cell viability [33] of 6.13%.

— the supplement of paper PMC11451515
